In patent EP0320984A2, “1,4-Dihydropyridine derivatives” (FUJIREBIO INC., priority 1987, dated 1989):

How the values were obtained:
Thoracic aortas = test: Inhibitory activity on KCl-induced contraction of aorta (helical strips of thoracic aorta); set-up: species or system male rabbits; conditions: 10^-6M, 60min after addition; 30 mM KCl, rabbit aorta strips, 37°C
Description: 2. Experiment for inhibitory activity on KCl-induced contraction of aorta: Thoracic aortas were isolated from male rabbits and cut into helical strips. The preparations were mounted vertically in organ baths containing 30 ml of Krebs- Henseleit solution. […] Test and reference compounds were added to the bath 30 minutes after KCl treatment.

[1] = system: Rabbit platelet rich plasma (PRP); test: Inhibitory activity on platelet aggregation in rabbit platelet rich plasma (light transmission); assay type: cell-based; conditions: added to PRP 30 minutes before agent; for Inhibitory activity on platelet aggregation, PAF: compound 3x10^-6 (unit not given), Platelet activating factor (PAF) 10 mg/ml; for Inhibitory activity on platelet aggregation, ADP / Inhibitory activity on platelet aggregation, AA / Inhibitory activity on platelet aggregation, Collagen: compound 10^-4 (unit not given); for Inhibitory activity on platelet aggregation, ADP: Adenosine diphosphate (ADP) 5 mM; for Inhibitory activity on platelet aggregation, AA: Arachidonic acid (AA) 1 mM; for Inhibitory activity on platelet aggregation, Collagen: aggregating agent collagen
Description: 3. Experiment for inhibitory activity on platelet aggregation in rabbit:
Rabbit platelet rich plasma (PRP) was prepared by centrifugation of the citrated blood at 380 g for 10 minutes at 20°C. Test solution (10 µl) was added to PRP (200 µl) 30 minutes before treatment of aggregation agents (10 µl). The extent of aggregation was expressed with the maximum change in light transmission for PRP and platelet poor plasma was taken as a value of 100%

SMILES	Inhibitory effect on KCl-induced contraction (Thoracic aortas)	Inhibitory activity on platelet aggregation, PAF [1]	Inhibitory activity on platelet aggregation, ADP [1]	Inhibitory activity on platelet aggregation, AA [1]	Inhibitory activity on platelet aggregation, Collagen [1]
C/C=C/C=C/COC(=O)C1=C(C)NC(C)=C(C(=O)OC/C=C/c2ccc(Cn3ccnc3)cc2)C1c1cccc([N+](=O)[O-])c1 (centres unmarked) [Example 15, (E)-2,(E)-4-hexadien-1-yl (E)-3-{4-(1-imidazolylmethyl)phenyl}2-propen-1-yl 1,4-dihydro-2,6-dimethyl-4-(3-nitrophenyl)pyridine-3,5-dicarboxylate]	21.6%	74.1%	8.8%	30.2%	10.5%
COC(=O)C1=C(C)NC(C)=C(C(=O)OC/C=C/C=C/c2ccc(Cn3ccnc3)cc2)C1c1cccc([N+](=O)[O-])c1 (centres unmarked) [Example 19, 5-{4-(1-imidazolylmethyl)phenyl}-(E)-2,(E)-4-pentadien-1-yl methyl 1,4-dihydro-2,6-dimethyl-4-(3-nitrophenyl)pyridine-3,5-dicarboxylate]	68.8%	41.5%	17.2%	35.5%	66.3%
COC(=O)C1=C(C)NC(C)=C(C(=O)OC/C=C/c2ccc(Cn3ccnc3)cc2)C1c1cccnc1 (centres unmarked) [Example 22, (E)-3-{4-(1-imidazolylmethyl)phenyl}-2-propen-1-yl methyl 1,4-dihydro-2,6-dimethyl-4-(3-pyridyl)pyridine-3,5-dicarboxylate]	–	0%	14.7%	23.2%	24.7%
COC(=O)C1=C(C)NC(C)=C(C(=O)OC/C=C/c2ccc(Cn3ccnc3)cc2)C1c1ccnc2ccccc12 (centres unmarked) [Example 23, (E)-3-{4-(1-imidazolylmethyl)phenyl}-2-propen-1-yl methyl 1,4-dihydro-2,6-dimethyl-4-(4-quinolyl)pyridine-3,5-dicarboxylate]	–	0%	2.6%	25.7%	29.5%
COC(=O)C1=C(C)NC(C)=C(C(=O)OC/C=C/c2ccc(C(C)n3ccnc3)cc2)C1c1cccc([N+](=O)[O-])c1 (centres unmarked) [Example 24, (E)-3-{4-{1-(1-imidazolyl)ethyl}phenyl}-2-propen-1-yl methyl 1,4-dihydro-2,6-dimethyl-4-(3-nitrophenyl)pyridine-3,5-dicarboxylate]	74.3%	18.3%	7.8%	28.2%	27.5%
COC(=O)C1=C(C)NC(C)=C(C(=O)OC/C=C/c2cccc(Cn3ccnc3)n2)C1c1cccc([N+](=O)[O-])c1 (centres unmarked) [Example 25, (E)-3-{6-(1-imidazolylmethyl)pyridine-2-yl}-2-propen-1-yl methyl 1,4-dihydro-2,6-dimethyl-4-(3-nitrophenyl)pyridine-3,5-dicarboxylate]	–	28.5%	0%	27.8%	22.5%
COC(=O)C1=C(C)NC(C)=C(C(=O)OCCON=Cc2ccc(Cn3ccnc3)cc2)C1c1cccc([N+](=O)[O-])c1 (centres unmarked) [Example 26, 2-[{4-(1-imidazolylmethyl)benzylideneamino}oxy]ethyl methyl 1,4-dihydro-2,6-dimethyl-4-(3-nitrophenyl)pyridine3,5-dicarboxylate]	–	30.0%	6.0%	27.6%	13.5%
COC(=O)C1=C(C)NC(C)=C(C(=O)OCCN(C)Cc2ccccc2)C1c1cccc([N+](=O)[O-])c1.Cl (centres unmarked) [NICARDIPINE, 1,4-dihydro-2,6-dimethyl-4-(3-nitrophenyl)pyridine-3,5-dicarboxylic acid-3-[2-(N-benzyl-N-methylamino)ethyl]ester-5-methyl ester hydrochloride, reference compound]	91.1%	–	6.9%	–	3.6%
COC(=O)C1=C(C)NC(C)=C(C(=O)OC)C1c1ccccc1[N+](=O)[O-] [NIFEDIPINE, 1,4-dihydro-2,6-dimethyl-4-(2-nitrophenyl)pyridine-3,5-dicarboxylic acid dimethyl ester, reference compound]	87.6%	–	0%	0.2%	5.1%
